# From US20090143279A1 (priority 2007, published 2009)
# Like-named read-outs stand apart in the source and are kept apart here.
# Legend:
# [1] = tested on: mitochondrial membrane potential; assay type: cell-based, mouse; settings: for ΔΨm (composite Z-score): normalized score vs mock-treated (DMSO) wells
# cytochrome c = assay type: cell-based, mouse; settings: for cyt c (composite Z-score): normalized score vs mock-treated (DMSO) wells
# C2C12 myotubes = settings: for Viability (composite Z-score): normalized score vs mock-treated (DMSO) wells
# nuOXPHOS transcripts = assay type: cell-based, mouse; settings: for nucOX (composite Z-score): normalized score vs mock-treated (DMSO) wells
# reactive oxygen species = assay type: cell-based, mouse; settings: for ROS (composite Z-score): normalized score vs mock-treated (DMSO) wells
# mtOXPHOS transcripts = assay type: cell-based, mouse; settings: for mitoOX (composite Z-score): normalized score vs mock-treated (DMSO) wells
# [2] = tested on: cellular dehydrogenase activity; settings: for MTT (composite Z-score): normalized score vs mock-treated (DMSO) wells
# OXPHOS gene expression = assay type: cell-based, mouse; settings: for GE-HTS (composite Z-score): normalized score vs mock-treated (DMSO) wells
# [3] = composite Z-score vs mock-treated (DMSO) wells, Conc 20 μM
# [4] = composite Z-score vs DMSO wells, Conc 20 μM
# [5] = composite Z-score vs DMSO, Conc 20 μM
# [6] = 20 μM, composite Z-score vs DMSO
structure (smiles),measurement,setting,value
C1COC(NC(C2CC2)C2CC2)=N1 [rilmenidine],ΔΨm,[1],−0.589
same,cyt c,cytochrome c,−0.042
same,Viability,C2C12 myotubes,0.245
same,nucOX,nuOXPHOS transcripts,0.319
same,ROS,reactive oxygen species,0.340
same,mitoOX,mtOXPHOS transcripts,−0.313
same,MTT,[2],0.082
same,GE-HTS,OXPHOS gene expression,0.123
CN1CCCN=C1/C=C/c1cccs1 [pyrantel pamoate],ΔΨm,[1],−2.829
same,cyt c,cytochrome c,0.640
same,Viability,C2C12 myotubes,−1.934
same,nucOX,nuOXPHOS transcripts,−0.500
same,ROS,reactive oxygen species,0.592
same,mitoOX,mtOXPHOS transcripts,−0.327
same,MTT,[2],−0.189
same,GE-HTS,OXPHOS gene expression,−0.468
"C[C@@H]1C(=O)O[C@H]2[C@H]1CC[C@@]1(C)C=CC(=O)[C@@]3(C)O[C@@]213 [epoxy (4,5alpha)-4,5-dihydrosantonin]",ΔΨm,[1]; [3],0.199
same,cyt c,cytochrome c; [3],0.552
same,Viability,C2C12 myotubes; [3],0.133
same,nucOX,nuOXPHOS transcripts; [3],−0.614
same,ROS,reactive oxygen species; [3],−1.367
same,mitoOX,mtOXPHOS transcripts; [3],−0.901
same,MTT,[2]; [3],0.041
same,GE-HTS,OXPHOS gene expression; [3],−0.736
CN(C)CCOC(=O)C(c1ccccc1)C1(O)CCCC1 (stereo not shown) [cyclopentolate],ΔΨm,[1]; [4],−0.072
same,cyt c,cytochrome c,0.859
same,cyt c,cytochrome c; [4],−0.283
same,Viability,C2C12 myotubes; [4],−0.300
same,nucOX,nuOXPHOS transcripts; [4],0.830
same,ROS,reactive oxygen species; [4],−0.406
same,mitoOX,mtOXPHOS transcripts; [4],−0.037
same,MTT,[2]; [4],−0.756
same,GE-HTS,OXPHOS gene expression; [4],0.556
COc1ccc(-c2coc3cc(O)cc(O)c3c2=O)cc1 [biochanin A],ΔΨm (composite Z-score),[1]; Conc 20 μM,0.033
same,cyt c (composite Z-score),cytochrome c; Conc 20 μM,−0.416
same,Viability (composite Z-score),C2C12 myotubes; Conc 20 μM,0.987
same,nucOX (composite Z-score),nuOXPHOS transcripts; Conc 20 μM,−0.459
same,ROS (composite Z-score),reactive oxygen species; Conc 20 μM,0.623
same,mitoOX (composite Z-score),mtOXPHOS transcripts; Conc 20 μM,−0.042
same,MTT (composite Z-score),[2]; Conc 20 μM,−0.325
same,GE-HTS (composite Z-score),OXPHOS gene expression; Conc 20 μM,−0.324
CNCCc1ccccn1 [betahistine],ΔΨm,[1]; [4],0.125
same,cyt c,cytochrome c,0.296
same,cyt c,cytochrome c; [4],0.386
same,Viability,C2C12 myotubes; [4],1.068
same,nucOX,nuOXPHOS transcripts; [4],−0.008
same,ROS,reactive oxygen species; [4],−0.176
same,mitoOX,mtOXPHOS transcripts; [4],−0.718
same,MTT,[2]; [4],0.861
same,GE-HTS,OXPHOS gene expression; [4],−0.284
CC1(C)C(=O)C=C[C@@]2(C)C1CC(=O)[C@@]1(C)C3=CC(=O)O[C@@H](c4ccoc4)[C@]3(C)CCC12 (stereo partly shown) [7-deacetoxy-7-oxodeoxygedunin],ΔΨm,[1]; [3],0.757
same,cyt c,cytochrome c; [3],0.166
same,Viability,C2C12 myotubes; [3],0.224
same,nucOX,nuOXPHOS transcripts; [3],−1.586
same,ROS,reactive oxygen species; [3],−0.489
same,mitoOX,mtOXPHOS transcripts; [3],−1.925
same,MTT,[2]; [3],−1.467
same,GE-HTS,OXPHOS gene expression; [3],−1.791
C[C@@H]1CC[C@H]2[C@](C)(CO)[C@@H](O)CC[C@]2(C)[C@@]12CC[C@@](CO)(CCO)O2 [lagochilin],ΔΨm (composite Z-score),[1]; Conc 20 μM,0.277
same,cyt c (composite Z-score),cytochrome c; Conc 20 μM,−0.862
same,Viability (composite Z-score),C2C12 myotubes; Conc 20 μM,0.043
same,nucOX (composite Z-score),nuOXPHOS transcripts; Conc 20 μM,−0.036
same,ROS (composite Z-score),reactive oxygen species; Conc 20 μM,0.962
same,mitoOX (composite Z-score),mtOXPHOS transcripts; Conc 20 μM,0.128
same,MTT (composite Z-score),[2]; Conc 20 μM,−0.238
same,GE-HTS (composite Z-score),OXPHOS gene expression; Conc 20 μM,0.002
CCNC(=O)CC[C@H](N)C(=O)O [theanine],ΔΨm,[1]; [5],−0.557
same,cyt c,cytochrome c; [5],0.244
same,Viability,C2C12 myotubes; [5],−0.613
same,nucOX,nuOXPHOS transcripts; [5],−1.209
same,ROS,reactive oxygen species; [5],0.615
same,mitoOX,mtOXPHOS transcripts; [5],−0.778
same,MTT,[2]; [5],−0.851
same,GE-HTS,OXPHOS gene expression; [5],−1.153
Oc1c(Br)cc(Br)c2cccnc12 [broxyquinoline],ΔΨm,[1]; [6],1.701
same,cyt c,cytochrome c; [6],0.410
same,Viability,C2C12 myotubes; [6],−2.006
same,nucOX,nuOXPHOS transcripts; [6],−1.095
same,ROS,reactive oxygen species; [6],−1.081
same,mitoOX,mtOXPHOS transcripts; [6],−0.157
same,MTT,[2]; [6],−1.180
same,GE-HTS,OXPHOS gene expression; [6],−0.830
"COc1cc2c(cc1OC)[C@@H]1C(=O)c3ccc(O)c(CC=C(C)C)c3O[C@@H]1CO2 [rotenonic acid, reference compound]",ΔΨm,[1]; [3],0.050
same,cyt c,cytochrome c; [3],0.365
same,Viability,C2C12 myotubes; [3],0.206
same,nucOX,nuOXPHOS transcripts; [3],−0.010
same,ROS,reactive oxygen species; [3],0.173
same,mitoOX,mtOXPHOS transcripts; [3],−0.108
same,MTT,[2]; [3],−0.731
same,GE-HTS,OXPHOS gene expression; [3],−0.064
"CC[C@@H](C(=O)[C@@H](C)[C@@H](O)[C@H](C)CCc1ccc(C)c(O)c1C(=O)O)[C@H]1O[C@](CC)([C@H]2CC[C@](O)(CC)[C@H](C)O2)C[C@@H]1C [lasalocid, reference compound]",ΔΨm,[1]; [5],−1.178
same,cyt c,cytochrome c; [5],−1.690
same,Viability,C2C12 myotubes; [5],−1.090
same,nucOX,nuOXPHOS transcripts; [5],0.274
same,ROS,reactive oxygen species; [5],−2.993
same,mitoOX,mtOXPHOS transcripts; [5],−4.908
same,MTT,[2]; [5],−1.771
same,GE-HTS,OXPHOS gene expression; [5],−1.524
CC(=O)O[C@H]1CC[C@]2(C)C3=CC(=O)[C@]4(C)[C@@H]5[C@H](C[C@H]4[C@@H]3CC[C@H]2C1)O[C@@]1(OCC(C)CC1Br)[C@H]5C (stereo partly shown),ΔΨm (composite Z-score),[1]; Conc 20 μM,−0.260
same,cyt c (composite Z-score),cytochrome c; Conc 20 μM,0.565
same,Viability (composite Z-score),C2C12 myotubes; Conc 20 μM,0.710
same,nucOX (composite Z-score),nuOXPHOS transcripts; Conc 20 μM,−0.585
same,ROS (composite Z-score),reactive oxygen species; Conc 20 μM,1.188
same,mitoOX (composite Z-score),mtOXPHOS transcripts; Conc 20 μM,−0.446
same,MTT (composite Z-score),[2]; Conc 20 μM,−2.231
same,GE-HTS (composite Z-score),OXPHOS gene expression; Conc 20 μM,−0.560
